Source: patent publication US20180298405A1, “METHODS AND COMPOSITIONS TO INCREASE HUMAN SOMATIC CELL NUCLEAR TRANSFER (SCNT) EFFICIENCY BY REMOVING HISTONE H3-LYSINE TRIMETHYLATION, AND DERIVATION OF HUMAN NT-ESC” (CHILDREN'S MEDICAL CENTER CORPORATION, priority 2015, published 2018)

System: reprogramming resistant regions (RRRs) / ZGA genes
Assay: RNA-seq of late 8-cell human SCNT embryos with or without KDM4A mRNA injection (ZGA of RRRs, KDM4A-responsive genes)
Type: cell-based
Conditions: KDM4A SCNT 8-cell embryos
Excerpt: A sliding window (size 20 kb, step size 10 kb) was used to assess the genome-wide expression level of 4-cell and 8-cell human embryos. For each window, the expression level was quantified with normalized RPM (reads per millions of uniquely mapped reads). […] These activated regions were classed into three groups based on their expression differences in human SCNT and IVF 8-cell embryos.
The SCNT embryos used for ZGA analysis were generated using oocytes donated by a single healthy person (#64) and dermal fibroblast cells from an AMD patient (DFB-8). SCNT and IVF embryos were cultured up to late 8-cell stage, when the compaction of blastomeres is initiated, then they were treated briefly with acid Tyrode solution to remove zona pellucida. To prepare for the 8-cell SCNT embryo, oocytes from a single oocyte donor, and skin fibroblast cells from a single somatic nuclear donor were used. All the procedures are the same as described in the “Human SCNT procedure and KMD4A mRNA injection” section. Only embryos that reached the late 8-cell stage synchronically 74 hours post activation were collected and used for this experiment.
For preparation of the control IVF embryos, several donated early 8-cell stage IVF embryos were thawed and cultured for 5-7 hours to allow them to reach late 8-cell stage before being processed. After removal of the zona pellucida, the denuded embryos were washed 3 times in PBS, loaded into RNAse and DNAse free PCR tubes, spin downed, and snap frozen in liquid nitrogen. Then, they were kept at −80° C. until use. As controls, dermal fibroblast cells of somatic nuclear donors were also prepared. Those fibroblast cells were cultured in a 25 cm^2 flask in DMEM 10% FBS, and approximately 10,000 cells/donor were collected, snap frozen, and stored at −80° C. until use.
Five 8-cell embryos for each group were directly lysed and used for cDNA synthesis using SMART-Seq v4 Ultra Low Input RNA Kit (Clontech). For MEF donor, 10 ng total RNA was used for cDNA synthesis using SMART-Seq v4 Ultra Low Input RNA Kit. After amplification, the cDNA samples were fragmented using Covaris sonicator M220 to an average size of 150 bp (Covaris). Sequencing libraries were made with the fragmented DNA using NEBNext Ultra DNA Library Prep Kit for Illumina according to manufacturer's instruction (New England Biolabs) with different barcodes. For each RNA-seq analysis of hESCs, 1 μg total RNA was used for mRNA purification. Barcoded RNA-seq libraries were generated using NEBNext Ultra Directional RNA Library Prep Kit for Illumina (New England Biolabs). Single end 50 bp sequencing was performed on a HiSeq 2500 sequencer (Illumina). Sequencing reads were mapped to the human genome (hg19) with Tophat2. All programs were performed with default settings (unless otherwise specified). At least 22 million uniquely mapped reads were obtained for each sequencing library, and subsequently assembled into transcripts guided by the reference annotation (Refseq gene models) with Cufflinks v2.0.2. Expression level of each gene was quantified with normalized FPKM (fragments per kilobase of exon per million mapped fragments). Statistical analyses were performed with R (available at: “www.r-project.org/”). Independent 2 group Wilcoxon rank sum tests were used to compare distributions using the wilcox.test function in R. Pearson's r coefficient was calculated using the cor function with default parameters. The hierarchical clustering analysis of the global gene expression pattern in different samples was carried out using heatmap.2 function (gplots package) in R.

KDM4A mRNA: in vitro transcribed mRNA of full length human KDM4A/JHDM3A cDNA, an H3K9me3 demethylase (SEQ ID NO: 1)
NOC4L Expression level (FPKM): 0.61 FPKM
NOP58 Expression level (FPKM): 55.54 FPKM
NUDT9 Expression level (FPKM): 1.35 FPKM
PAGE5 Expression level (FPKM): 1.86 FPKM
PDCD11 Expression level (FPKM): 1.88 FPKM
PDE4DIP Expression level (FPKM): 4.04 FPKM
PHOSPHO1 Expression level (FPKM): 0.23 FPKM
PIK3R4 Expression level (FPKM): 1.31 FPKM
PLBD1 Expression level (FPKM): 0.74 FPKM
PLD2 Expression level (FPKM): 1 FPKM
PLVAP Expression level (FPKM): 1.63 FPKM
POLR3K Expression level (FPKM): 109.26 FPKM
POTEM Expression level (FPKM): 1.96 FPKM
PPM1N Expression level (FPKM): 0.89 FPKM
PPP2CB Expression level (FPKM): 1.07 FPKM
PRAMEF3 Expression level (FPKM): 1.48 FPKM
PRAMEF4 Expression level (FPKM): 18.29 FPKM
PRAMEF6 Expression level (FPKM): 14.29 FPKM
PRAMEF10 Expression level (FPKM): 49.42 FPKM
PRAMEF11 Expression level (FPKM): 18.18 FPKM
PRAMEF17 Expression level (FPKM): 0.66 FPKM
PRPF39 Expression level (FPKM): 3.48 FPKM
PTPN22 Expression level (FPKM): 1.15 FPKM
RAB9A Expression level (FPKM): 1.37 FPKM
RASA2 Expression level (FPKM): 1 FPKM
RFK Expression level (FPKM): 2.86 FPKM
RNU11 Expression level (FPKM): 3.75 FPKM
RP2 Expression level (FPKM): 1.31 FPKM
RPF2 Expression level (FPKM): 102.42 FPKM
RPS6KB2 Expression level (FPKM): 0.32 FPKM
SAMD8 Expression level (FPKM): 4.34 FPKM
SCO1 Expression level (FPKM): 1.99 FPKM
SEPX1 Expression level (FPKM): 2.34 FPKM
SERTAD1 Expression level (FPKM): 7.03 FPKM
SFTPD Expression level (FPKM): 0.61 FPKM
SGCG Expression level (FPKM): 1.03 FPKM
SGPP1 Expression level (FPKM): 1.39 FPKM
SHFM1 Expression level (FPKM): 21.11 FPKM
SIAH1 Expression level (FPKM): 88.93 FPKM
SNAPC1 Expression level (FPKM): 17.7 FPKM
SNAR-C3 Expression level (FPKM): 98.14 FPKM
SNAR-E Expression level (FPKM): 2468.68 FPKM
SNHG9 Expression level (FPKM): 63.59 FPKM
SNHG12 Expression level (FPKM): 7.02 FPKM
SPINK7 Expression level (FPKM): 12.41 FPKM
SRA1 Expression level (FPKM): 5.51 FPKM
SSX3 Expression level (FPKM): 5.71 FPKM
STAG3L2 Expression level (FPKM): 2.72 FPKM
STAG3L4 Expression level (FPKM): 2.35 FPKM
STAP2 Expression level (FPKM): 0.83 FPKM
SUZ12P Expression level (FPKM): 1.31 FPKM
TAC1 Expression level (FPKM): 5.72 FPKM
TCEANC2 Expression level (FPKM): 2.9 FPKM
TCN2 Expression level (FPKM): 0.69 FPKM
TEN1 Expression level (FPKM): 3.43 FPKM
THOC5 Expression level (FPKM): 5.02 FPKM
TIMM10 Expression level (FPKM): 25.23 FPKM
TMEM41B Expression level (FPKM): 19.19 FPKM
TMEM92 Expression level (FPKM): 0.97 FPKM
TMEM159 Expression level (FPKM): 8.54 FPKM
TRIM39-RPP21 Expression level (FPKM): 1.26 FPKM
TRIML2 Expression level (FPKM): 1.8 FPKM
TSEN34 Expression level (FPKM): 1.75 FPKM
TTC27 Expression level (FPKM): 0.56 FPKM
TTC28-AS1 Expression level (FPKM): 7.79 FPKM
UBTFL1 Expression level (FPKM): 120.09 FPKM
UTP3 Expression level (FPKM): 2.98 FPKM
UTP23 Expression level (FPKM): 3.29 FPKM
UTS2 Expression level (FPKM): 1.14 FPKM
VAMP1 Expression level (FPKM): 13.05 FPKM
VCX2 Expression level (FPKM): 0.24 FPKM
VCX Expression level (FPKM): 0.23 FPKM
VPS54 Expression level (FPKM): 3.79 FPKM
WDR77 Expression level (FPKM): 3.45 FPKM
XAGE5 Expression level (FPKM): 0.11 FPKM
ZCCHC10 Expression level (FPKM): 15.69 FPKM
ZFYVE19 Expression level (FPKM): 4.05 FPKM
ZNF92 Expression level (FPKM): 21.84 FPKM
ZNF100 Expression level (FPKM): 3.76 FPKM
ZNF174 Expression level (FPKM): 1.13 FPKM
ZNF208 Expression level (FPKM): 1.74 FPKM
ZNF254 Expression level (FPKM): 1.32 FPKM
ZNF273 Expression level (FPKM): 4.43 FPKM
ZNF280A Expression level (FPKM): 84.94 FPKM
ZNF326 Expression level (FPKM): 2.8 FPKM
ZNF345 Expression level (FPKM): 1.41 FPKM
ZNF486 Expression level (FPKM): 2.77 FPKM
ZNF487P Expression level (FPKM): 3.02 FPKM
ZNF625-ZNF20 Expression level (FPKM): 1.95 FPKM
ZNF625 Expression level (FPKM): 1 FPKM
ZNF669 Expression level (FPKM): 8.14 FPKM
ZNF675 Expression level (FPKM): 15.04 FPKM
ZNF676 Expression level (FPKM): 4.61 FPKM
ZNF679 Expression level (FPKM): 86.94 FPKM
ZNF680 Expression level (FPKM): 5.58 FPKM
ZNF684 Expression level (FPKM): 7.21 FPKM
ZNF700 Expression level (FPKM): 1.86 FPKM
ZNF724P Expression level (FPKM): 13.16 FPKM
ZNF729 Expression level (FPKM): 0.94 FPKM
ZNF735 Expression level (FPKM): 33.19 FPKM
ZNF789 Expression level (FPKM): 5.2 FPKM
ZNF791 Expression level (FPKM): 3.79 FPKM
ZNF826P Expression level (FPKM): 2.07 FPKM
ZNHIT6 Expression level (FPKM): 3.88 FPKM
